Data on nine compounds can be found in paper PMC4616163, “Inverse relationship between chitobiase and transglycosylation activities of chitinase-D from Serratia proteamaculans revealed by mutational and biophysical analyses” (Scientific Reports, 2015).

“And” between values parts separate entries of the source, which are not always exact repeats. Equal entries are not always repeated. Where two headings read alike, the source gives them in different places.

The test system of one experiment is SpChiD mutant E153A. Description: DSC ligand-induced thermal stability of E153A with CHOS DP2–6. It counts as binding, Serratia proteamaculans. Particulars: for Tm Transition-I / Tm Transition-II: DSC, pH 8.0; for Tm Transition-I: E153A 0.5 mg/mL alone or pre-incubated 1 h with 1 mM ligand; for Tm Transition-II: E153A alone or pre-incubated 1 h with 1 mM ligand; for increment of Tm1 over E153A alone / increment of Tm2 over E153A alone: [Tm of E153A + (DP)n] − Tm of E153A alone; for increment of Tm1 over E153A alone: first transition; for increment of Tm2 over E153A alone: second transition. The protocol: DSC measurements were carried out on a MicroCal VP-DSC (MicroCal LLC, Northampton, MA, USA). SpChiD and mutant E153A were dialyzed against 20 mM potassium phosphate buffer, pH 8.0. The dialysate was used as the reference. Protein samples (0.5 mg/mL) were heated from 10–70 °C at a scan rate of 30°/h to assess the effect of ligand binding on thermal unfolding. Mutant E153A was pre-incubated for 1 h with 1 mM of each ligand (DP2–6) before scanning. Sample and reference solutions were degassed prior to scanning to eliminate bubbling effects. Baseline reproducibility was verified by multiple scans, and the reversibility of protein unfolding was monitored by scanning the sample twice. Buffer scans were subtracted from thermograms obtained in the presence or absence of CHOS before further analysis. Absolute and excess heat capacities were analyzed using a non-two-state fit of the thermogram in Origin v7.0.

Experiment [1] has as its target SpChiD-E153A (Serratia proteamaculans, UniProt A8GFD6, E159A). Description: ITC binding of CHOS to E153A. Particulars: ITC. On the procedure: (§1) Calorimetric titrations were carried out at 13 °C with DP2–4 CHOS, and at 25 °C with DP5 and DP6 CHOS, using a MicroCal ITC200 System (Microcal, Northampton, MA, USA). Mutant E153A was extensively dialyzed against 20 mM potassium phosphate (pH 8.0) and the dialysate was used to make CHOS solutions to minimize the heat of dilution during titration. Protein solutions were passed through 0.2-μm filters and thoroughly degassed prior to use. […] Successive injections at 225-s intervals ensured that equilibrium was achieved before adding the next aliquot. The sample in the calorimeter cell was stirred at 260 rpm during titration. Blank titrations were also performed by injecting ligand alone into the buffer solution, which yielded insignificant heat of dilution values. The binding isotherms were analyzed using MicroCal Origin v7.0. Thermodynamic parameters such as binding stoichiometry (n), change in enthalpy (ΔH) and association constant (Ka) were obtained by nonlinear least-squares fitting of experimental data using the one-set-of-sites binding model. Free energy of binding (ΔG) and change in entropy (ΔS) were deduced from the Ka and ΔH values using the standard thermodynamic equation

For experiment [2], the system named is SpChiD-E153A. The experiment can be described thus: ITC binding of CHOS to E153A. Also noted: species or system Serratia proteamaculans. Particulars: for binding affinity to E153A relative to the same ligand on SmChiB: times higher than SmChiB. On the procedure:
as §1

The target in the next experiment is BcChiA-E61A. Description: Literature Kd values from isothermal titration calorimetry, quoted for comparison; conditions not given in this article. In kind it is binding. Particulars: read-out: Kd values in μM (SmChiB-E144Q, OfChtI-E148Q, BcChiA-E61A); cited from earlier work. The source says: (§2) So far three chitinases, two belonging to family GH18 (ChiB from S. marcescens−SmChiB and a chitinase from the insect Ostrinia furnacalis−OfChtI) and one belonging to family GH19 (ChiA from moss species, Bryum coronatum−BcChiA) were studied in great detail for their binding properties using ITC[27][28][29]. […] The high binding affinities of the mutant E153A even for the lower chain CHOS like DP2 and DP3, indicates the probability of these CHOS getting transglycosylated at the substrate-binding cleft. […] Therefore, the exceptionally high binding affinities of the mutant E153A for CHOS with DP2−6 compared to any other GH18 or GH19 chitinases[27][28][29] (Table 3) might be crucial to facilitate the unprecedented hyper-TG activity by SpChiD.
For orientation: Isothermal titration calorimetry measures the heat released or taken up as one component is titrated into another.

The next experiment deals with SmChiB-E144Q. The description is as above. It counts as binding. As to conditions: read-out: Kd values in μM (SmChiB-E144Q, OfChtI-E148Q, BcChiA-E61A); cited from earlier work.
Description: as §2

In the next experiment the target is OfChtI-E148Q. Particulars: catalytically-inactive mutant, cited from earlier work.

Chain of SpChiD-E153A (Serratia proteamaculans, UniProt A8GFD6, E159A) (A8GFD6 entry or part of it E159A): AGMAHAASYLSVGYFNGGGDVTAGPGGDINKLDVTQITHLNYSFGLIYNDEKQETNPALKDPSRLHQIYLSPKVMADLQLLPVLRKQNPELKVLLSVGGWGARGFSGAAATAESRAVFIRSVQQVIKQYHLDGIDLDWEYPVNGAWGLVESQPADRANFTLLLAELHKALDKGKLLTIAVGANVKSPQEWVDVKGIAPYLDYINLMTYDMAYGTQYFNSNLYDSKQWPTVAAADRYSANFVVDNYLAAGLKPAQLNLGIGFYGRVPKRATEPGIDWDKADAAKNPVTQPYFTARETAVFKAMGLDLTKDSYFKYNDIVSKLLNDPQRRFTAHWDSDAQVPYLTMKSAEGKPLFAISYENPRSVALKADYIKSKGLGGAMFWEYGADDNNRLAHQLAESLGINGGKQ

For the compound `CC(=O)N[C@H]1[C@H](O[C@H]2[C@H](O)[C@@H](NC(C)=O)C(O)O[C@@H]2CO)O[C@H](CO)[C@@H](O)[C@@H]1O` (some centres unmarked) [DP2], in the experiment on SpChiD mutant E153A, the “Tm Transition-I” value worked out at 48.78 ± 0.03 °C and the “Tm Transition-II” value stood at 53.16 ± 0.096 °C. Also, at SpChiD-E153A [1] (13 °C), the “n (binding stoichiometry)” value was 3.04 and 3.04 ± 0.307; the “ΔH°” value was -0.1506 ± 0.0261 kcal/mol; the “ΔS°” value was 20.6 cal.mol^−1.deg^−1; the “−TΔS” value worked out at 5.89 kcal/mol. Moreover, the “−ΔG°” value on SpChiD-E153A [1] (13 °C) was determined as 6.04 kcal/mol. Besides, in the experiment on SpChiD-E153A [2] (compared with DP5 on SmChiB (Kd = 0.67 μM)), the “binding affinity of DP2 to SpChiD relative to DP5 binding to SmChiB” value is given as around 3 times.
`CC(=O)N[C@H]1[C@H](O[C@H]2[C@H](O)[C@@H](NC(C)=O)C(O)O[C@@H]2CO)O[C@H](CO)[C@@H](O[C@@H]2O[C@H](CO)[C@@H](O)[C@H](O)[C@H]2NC(C)=O)[C@@H]1O` (some centres unmarked) [DP3, (GlcNAc)3, N,N',N''-triacetylchitotriose]: the figures for the Kd at BcChiA-E61A and at SmChiB-E144Q were 230 ± 20 µM and 327 ± 22 µM, respectively.
As for `CC(=O)N[C@H]1[C@H](O[C@H]2[C@H](O)[C@@H](NC(C)=O)C(O)O[C@@H]2CO)O[C@H](CO)[C@@H](O[C@@H]2O[C@H](CO)[C@@H](O)[C@H](O)[C@H]2NC(C)=O)[C@@H]1O` (some centres unmarked) [DP3], in the experiment with SpChiD mutant E153A, the “Tm Transition-I” value was 50.20 ± 0.47 °C and the “Tm Transition-II” value turned out to be 54.30 ± 0.043 °C. Also, at SpChiD-E153A [1] (13 °C), the “n (binding stoichiometry)” value was 0.84 and 0.839 ± 0.0641; the “ΔH°” value is -1.837 ± 0.186 kcal/mol; the “ΔS°” value is recorded as 14.9 cal.mol^−1.deg^−1; the “−TΔS” value was 4.26 kcal/mol. The “−ΔG°” value at SpChiD-E153A [1] (13 °C) was 6.1 kcal/mol. For the same compound, in the experiment with SpChiD-E153A [2], the “binding affinity to E153A relative to the same ligand on SmChiB” value is given as 1,515 fold. Also, the Kd on OfChtI-E148Q (read-out: Kd1 to OfChtI-E148Q) is 76900 nM. In addition, at OfChtI-E148Q (read-out: Kd2 to OfChtI-E148Q), the Kd is 284000 nM.
With `CC(=O)N[C@H]1[C@H](O[C@H]2[C@H](O)[C@@H](NC(C)=O)C(O)O[C@@H]2CO)O[C@H](CO)[C@@H](O[C@@H]2O[C@H](CO)[C@@H](O[C@@H]3O[C@H](CO)[C@@H](O)[C@H](O)[C@H]3NC(C)=O)[C@H](O)[C@H]2NC(C)=O)[C@@H]1O` (some centres unmarked) [DP4, (GlcNAc)4, tetra-N-acetylchitotetraose], the Kd at BcChiA-E61A is 16 ± 1 µM; on SmChiB-E144Q, 2.7 ± 0.19 µM.
As for `CC(=O)N[C@H]1[C@H](O[C@H]2[C@H](O)[C@@H](NC(C)=O)C(O)O[C@@H]2CO)O[C@H](CO)[C@@H](O[C@@H]2O[C@H](CO)[C@@H](O[C@@H]3O[C@H](CO)[C@@H](O)[C@H](O)[C@H]3NC(C)=O)[C@H](O)[C@H]2NC(C)=O)[C@@H]1O` (some centres unmarked) [DP4], in the experiment on SpChiD mutant E153A, the “Tm Transition-I” value stood at 48.88 ± 0.52 °C and the “Tm Transition-II” value is 54.10 ± 0.032 °C. At SpChiD-E153A [1] (13 °C), the “n (binding stoichiometry)” value is 1.69 and 1.69 ± 0.071; the “ΔH°” value came out at 1.148 ± 0.0675 kcal/mol; the “ΔS°” value came out at 27 cal.mol^−1.deg^−1; the “−TΔS” value worked out at 7.72 kcal/mol. Moreover, the “−ΔG°” value on SpChiD-E153A [1] (13 °C) was determined as 6.6 kcal/mol. Moreover, the Kd at OfChtI-E148Q (read-out: Kd to OfChtI-E148Q) was 11300 ± 1500 nM.
`CC(=O)N[C@H]1[C@H](O[C@H]2[C@H](O)[C@@H](NC(C)=O)[C@H](O[C@H]3[C@H](O)[C@@H](NC(C)=O)C(O)O[C@@H]3CO)O[C@@H]2CO)O[C@H](CO)[C@@H](O[C@@H]2O[C@H](CO)[C@@H](O[C@@H]3O[C@H](CO)[C@@H](O)[C@H](O)[C@H]3NC(C)=O)[C@H](O)[C@H]2NC(C)=O)[C@@H]1O` (some centres unmarked) [DP5, (GlcNAc)5, penta-N-acetylchitopentaose]: the Kd is 1.8 ± 0.3 µM on BcChiA-E61A and 0.67 ± 0.2 µM at SmChiB-E144Q.
In the case of `CC(=O)N[C@H]1[C@H](O[C@H]2[C@H](O)[C@@H](NC(C)=O)[C@H](O[C@H]3[C@H](O)[C@@H](NC(C)=O)C(O)O[C@@H]3CO)O[C@@H]2CO)O[C@H](CO)[C@@H](O[C@@H]2O[C@H](CO)[C@@H](O[C@@H]3O[C@H](CO)[C@@H](O)[C@H](O)[C@H]3NC(C)=O)[C@H](O)[C@H]2NC(C)=O)[C@@H]1O` (some centres unmarked) [DP5], in the experiment on SpChiD mutant E153A, the “Tm Transition-I” value was found to be 56.09 ± 0.30 °C, the “Tm Transition-II” value amounted to 59.30 ± 0.063 °C, the “increment of Tm1 over E153A alone” value amounted to 10.7 °C and the “increment of Tm2 over E153A alone” value was 11.2 °C. Moreover, on SpChiD-E153A [1] (25 °C), the “n (binding stoichiometry)” value is 1.09 and 1.09 ± 0.00966; the “ΔH°” value worked out at 3.530 ± 0.0468 kcal/mol; the “ΔS°” value is 38.7 cal.mol^−1.deg^−1; the “−TΔS” value was found to be 11.53 kcal/mol. Also, the “−ΔG°” value at SpChiD-E153A [1] (25 °C) was 8 kcal/mol. In the experiment with SpChiD-E153A [2], the “binding affinity to E153A relative to the same ligand on SmChiB” value came to 52 fold. The Kd at OfChtI-E148Q (read-out: Kd to OfChtI-E148Q) is 2000 ± 200 nM.
For `CC(=O)N[C@H]1[C@H](O[C@H]2[C@H](O)[C@@H](NC(C)=O)[C@H](O[C@H]3[C@H](O)[C@@H](NC(C)=O)C(O)O[C@@H]3CO)O[C@@H]2CO)O[C@H](CO)[C@@H](O[C@@H]2O[C@H](CO)[C@@H](O[C@@H]3O[C@H](CO)[C@@H](O[C@@H]4O[C@H](CO)[C@@H](O)[C@H](O)[C@H]4NC(C)=O)[C@H](O)[C@H]3NC(C)=O)[C@H](O)[C@H]2NC(C)=O)[C@@H]1O` (some centres unmarked) [DP6, (GlcNAc)6, hexa-N-acetylchitohexaose (chitohexaose)], the Kd at BcChiA-E61A was 0.77 ± 0.06 µM; at SmChiB-E144Q it was 0.13 ± 0.09 µM.
In the case of `CC(=O)N[C@H]1[C@H](O[C@H]2[C@H](O)[C@@H](NC(C)=O)[C@H](O[C@H]3[C@H](O)[C@@H](NC(C)=O)C(O)O[C@@H]3CO)O[C@@H]2CO)O[C@H](CO)[C@@H](O[C@@H]2O[C@H](CO)[C@@H](O[C@@H]3O[C@H](CO)[C@@H](O[C@@H]4O[C@H](CO)[C@@H](O)[C@H](O)[C@H]4NC(C)=O)[C@H](O)[C@H]3NC(C)=O)[C@H](O)[C@H]2NC(C)=O)[C@@H]1O` (some centres unmarked) [DP6, chitohexaose], in the experiment with SpChiD mutant E153A, the “Tm Transition-I” value turned out to be 58.15 ± 0.19 °C, the “Tm Transition-II” value came to 60.49 ± 0.055 °C, the “increment of Tm1 over E153A alone” value was determined as 12.8 °C and the “increment of Tm2 over E153A alone” value worked out at 12.4 °C. In addition, on SpChiD-E153A [1] (25 °C), the “n (binding stoichiometry)” value is 1.58 and 1.58 ± 0.00962; the “ΔH°” value turned out to be 2.281 ± 0.0249 kcal/mol; the “ΔS°” value came to 36.3 cal.mol^−1.deg^−1; the “−TΔS” value stood at 10.81 kcal/mol. Besides, the “−ΔG°” value on SpChiD-E153A [1] (25 °C) amounted to 8.53 kcal/mol. Further, in the experiment with SpChiD-E153A [2], the “binding affinity to E153A relative to the same ligand on SmChiB” value is 26 fold. Besides, at OfChtI-E148Q (read-out: Kd to OfChtI-E148Q), the Kd is 480 ± 90 nM.
